We go through 38 compounds from patent publication US9227935B2, “Piperidine/piperazine derivatives” (Janssen Pharmaceutica N.V., priority 2007, dated 2016).

The target in this assay is T1, human DGAT1 (Homo sapiens, UniProt O75907).
T1 construct: FLAG (N); made in house; host or cells: SF9 insect cells (baculovirus, pFastBac); total cell membranes used as the enzyme source
T1 sequence (O75907 1-488): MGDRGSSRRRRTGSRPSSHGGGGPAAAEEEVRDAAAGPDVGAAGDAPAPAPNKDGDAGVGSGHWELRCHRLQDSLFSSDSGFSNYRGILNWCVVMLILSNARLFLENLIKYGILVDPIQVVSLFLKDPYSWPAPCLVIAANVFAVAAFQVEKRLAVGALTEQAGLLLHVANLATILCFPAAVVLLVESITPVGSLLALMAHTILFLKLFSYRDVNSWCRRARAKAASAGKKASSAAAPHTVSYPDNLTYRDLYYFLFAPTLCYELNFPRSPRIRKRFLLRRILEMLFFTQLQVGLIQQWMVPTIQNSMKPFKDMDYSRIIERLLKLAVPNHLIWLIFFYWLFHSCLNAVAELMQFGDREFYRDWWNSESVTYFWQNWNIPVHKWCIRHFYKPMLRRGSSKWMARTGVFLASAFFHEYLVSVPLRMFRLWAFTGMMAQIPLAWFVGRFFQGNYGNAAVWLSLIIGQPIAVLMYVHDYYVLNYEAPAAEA
The assay is described as follows: DGAT1 FlashPlate inhibition assay with DGAT1 membrane preparations. The following applies: IC50 values expressed in M; pIC50 = -logIC50; inhibition of DGAT1 activity. Format: biochemical. The text has this: The inhibiting activity of the present compounds on DGAT1 activity was screened in a single well procedure assay using DGAT1 comprising membrane preparations and DGAT1 substrate comprising micelles and determining formed radio-active triacylglycerol coming in close proximity of a flashplate surface by radioluminescence.
Said assay is described in full detail in WO2006/067071, the content of which is incorporated herein by reference.
By DGAT1 activity is meant the transfer of coenzyme A activated fatty acids to the 3-position of 1,2-diacylglycerols, thus forming a triglyceride molecule, by enzyme DGAT1.
human DGAT1 (NM012079.2) was cloned into the pFastBac vector, containing translation start, a FLAG-tag at the N-terminus as described in literature and a viral Kozak sequence (AAX) preceding the ATG to improve expression in insect cells. Expression was done as described in literature (Cases, S., Smith, S. J., Zheng, Y., Myers H. M., Lear, S. R., Sande, E., Novak, S., Collins, C., Welch, C. B., Lusis, A. J., Erickson, S. K. and Farese, R. V. (1998) Proc. Natl. Acad. Sci. USA 95, 13018-13023.) using SF9 cells.
72 h transfected SF9 cells were collected by centrifugation (13000 rpm-15 min-4° C.) and lysed in 2×500 ml lysis buffer (0.1M Sucrose, 50 mM KCl, 40 mM KH2PO4, 30 mM EDTA pH 7.2. Cells were homogenized by cell disruptor. After centrifugation 1380 rpm-15 min-4° C. (SN discarded), pellet was resuspended in 500 ml lysis buffer and total cell membranes collected by ultracentrifugation at 34000 rpm (100 000 g) for 60 min (4° C.). The collected membranes were resuspended in lysis buffer, divided in aliquots and stored with 10% glycerol at −80° C. until use.
Add 1 ml dioleoyl-sn-glycerol (10 mg/ml) to 10 ml of L-α-phosphatidylcholine (1 mg/ml) and 10 ml of L-α-phosphatidyl-L-serine (1 mg/ml) in a thick glass recipient. Evaporate under nitrogen and put on ice for 15 minutes. Reconstitute in 10 ml Tris/HCl (10 mM, pH 7.4) by sonication on ice. The sonification process consists of sonification cycles of 10 seconds in the sonification bath followed by 10 seconds cool down on ice and repeating this sonification cycle till a homogeneous solution is obtained (takes about 15 minutes). The thus obtained micelles are stored at −20° C. till later use and contain DAG at a final concentration of 1.61 mM.
• 50 mM Tris-HCl (pH 7.4), 150 mM MgCl2, 1 mM EDTA, 0.2% BSA. b) N-ethylmaleimide, 5M • Dissolve 5 g into a final volume of 8 ml DMSO 100% and store at −20° C. in aliquots till later use. c) Substrate mix (for 1 384 well plate=3840 μl) • 612 μl micelles stock (51 μM final) • 16.6 μl oleoylCoA 9.7 mM • 23 μl [^3H]-oleoylCoA (49 Ci/mmol, 500 μCi/ml) • 3188.4 μl Tris pH 7.4, 10 mM d) Enzyme mix (for 1 384 well plate=3520 μl) (5 μg/ml) • Add 11.73 μl of DGAT membrane stock (1500 μg/ml stock) to 3508 μl assay buffer. e) Stop mix (for 1 384 well plate=7.68 ml) (250 mM) • Add 384 μl of N-ethylmaleimide (5M) to 3.456 ml DMSO 100%, and further dilute 3.84 ml of said solution with 3.84 ml DMSO 10%. Method
DGAT activity in membrane preparations was assayed in 50 mM Tris-HCl (pH 7.4), 150 mM MgCl2, 1 mM EDTA and 0.2% BSA, containing 50 μM DAG, […] PC/PS and 8.4 μM [^3H]-oleoylCoA (at a specific activity of 30 nCi/well) in a final volume of 50 μl in 384-well format using the red shifted Basic Image FlashPlate™ (Perkin Elmer Cat. No. SMP400).
In detail, 10 μl enzyme mix and 10 μl substrate mix were added to 30 μl of assay buffer, optionally in the presence of 1 μl DMSO (blank and controls) or 1 μl of the compound to be tested. This reaction mixture was incubated for 120 minutes at 37° C. and the enzymatic reaction stopped by adding 20 μl of the stop mix. The plates were sealed and the vesicles allowed to settle overnight at room temperature. Plates were centrifuged for 5 minutes at 1500 rpm and measured in Leadseeker. […]
As for `O=C(Nc1ccc(C2CCN(C(=O)Nc3c(Cl)cccc3Cl)CC2)cc1)C1CCCNC1` (centres unmarked) [Compound 49], the half-inhibitory concentration (IC50) is 8910 nM.

Compound `Cc1cccc(C)c1NC(=O)N1CCC(c2ccc(NC(=O)c3ccccc3-c3ccc(C(F)(F)F)cc3)cc2)CC1` [Compound 128] showed a 50% inhibitory concentration (IC50) of 661 nM.

As to `CCOC(=O)Cc1cccc(C(=O)Nc2ccc(N3CCN(C(=O)Nc4c(Cl)cc(CN5CCCCC5)cc4Cl)CC3)cc2)c1` [Compound 138], it took 11.5 nM to reach half-maximal inhibition (IC50).

The compound `O=C(Nc1ccc(N2CCN(C(=O)Nc3c(F)cc(Br)cc3F)CC2)cc1)c1ccccc1-c1ccc(C(F)(F)F)cc1` [Compound 98] had a half-inhibitory concentration (IC50) of 2630 nM. This IC50 is about 230-fold higher than that of the compound before.

For the compound `O=C(Nc1ccc(N2CCN(C(=O)Nc3ccccc3Br)CC2)cc1)c1ccccc1-c1ccc(C(F)(F)F)cc1` [Compound 88], half-maximal inhibition (IC50) was put at 1380 nM.

As for `Cc1cc(C)n(-c2ccc(C(=O)Nc3ccc(N4CCN(C(=O)Nc5c(Cl)cccc5Cl)CC4)cc3)cc2)n1` [Compound 27], the IC50 was 3.89 nM.

`O=C(Nc1ccc(N2CCN(C(=O)Nc3ccccc3Oc3ccccc3)CC2)cc1)c1ccccc1-c1ccc(C(F)(F)F)cc1` [Compound 105]: the IC50 is 3310 nM.

`Cc1ccccc1NC(=O)N1CCC(c2ccc(NC(=O)c3ccccc3-c3ccc(C(F)(F)F)cc3)cc2)CC1` [Compound 7]: 3470 nM corresponded to half-maximal inhibition (IC50).

`CN(C)c1ccc(NC(=O)N2CCN(c3ccc(NC(=O)c4ccccc4-c4ccc(C(F)(F)F)cc4)cc3)CC2)cc1` [Compound 73]: the half-maximal inhibitory concentration (IC50) was 3550 nM.

For `Cc1nnnn1-c1cccc(C(=O)Nc2ccc(N3CCN(C(=O)Nc4c(Cl)cccc4Cl)CC3)cc2)c1` [Compound 31], the IC50 is 269 nM.

As for `O=C(O)c1cccc(C(=O)Nc2ccc(N3CCN(C(=O)Cc4c(Cl)cc(CN5CCCC5)cc4Cl)CC3)cc2)c1` [Compound 146], the midpoint of inhibition, the IC50, lay at 3390 nM. Compared with the last compound, the IC50 is about 13-fold higher.

In turn, `CC(C)OC(=O)c1ccc(-c2cccc(C(=O)Nc3ccc(N4CCN(C(=O)Nc5c(Cl)cccc5Cl)CC4)cc3)c2)cc1` [Compound 127] gave a concentration for half-maximal inhibition (IC50) of 25.1 nM.

Turning to `O=C(Nc1ccc(C2=CCN(C(=O)NCCCc3ccccc3)CC2)cc1)c1ccccc1-c1ccc(C(F)(F)F)cc1` [Compound 122], half-maximal inhibition (IC50) required 1510 nM.

In turn, `CC(C)c1ccc(-c2ccccc2C(=O)Nc2ccc(C3CCN(C(=O)Nc4c(Cl)cccc4Cl)CC3)cc2)cc1` [Compound 61] gave an IC50 of 427 nM.

Turning to `O=C(Nc1ccc(N2CCN(C(=O)Nc3c(Cl)cccc3Cl)CC2)cc1)c1ccc(-c2ccccn2)cc1` [Compound 126], half-maximal inhibition (IC50) was put at 9.55 nM.

The compound `CC(C)c1ccccc1NC(=O)N1CCC(c2ccc(NC(=O)c3ccccc3-c3ccc(C(F)(F)F)cc3)cc2)CC1` [Compound 109] gave an IC50 of 9550 nM.

`Cc1ccccc1NC(=O)N1CCN(c2ccc(NC(=O)c3ccccc3-c3ccc(C(F)(F)F)cc3)cc2)CC1` [Compound 74] had a half-inhibitory concentration (IC50) of 1100 nM.

`O=C(Nc1ccc(C2CCN(C(=O)Nc3c(F)cc(F)cc3Br)CC2)cc1)c1ccccc1-c1ccc(C(F)(F)F)cc1` [Compound 114] had an IC50 of 1230 nM.

In the case of `Cc1nc(C(=O)Nc2ccc(N3CCN(C(=O)Nc4c(Cl)cccc4Cl)CC3)cc2)c(-c2cccc(C(F)(F)F)c2)s1` [Compound 65], the IC50 is 204 nM. Compared with the last compound, the IC50 is about 6-fold lower.

In turn, `O=C(Nc1ccc(N2CCN(C(=O)Nc3c(Cl)cccc3Cl)CC2)cc1)c1cccc(-c2cnco2)c1` [Compound 16] had a half-maximal inhibitory concentration (IC50) of 12 nM.

Regarding `O=C(Nc1ccc(N2CCN(C(=O)Nc3ccccc3F)CC2)cc1)c1ccccc1-c1ccc(C(F)(F)F)cc1` [Compound 90], the half-maximal inhibitory concentration (IC50) was 2950 nM.

For `Cc1ccc([N+](=O)[O-])c(NC(=O)N2CCN(c3ccc(NC(=O)c4ccccc4-c4ccc(C(F)(F)F)cc4)cc3)CC2)c1C` [Compound 101], the IC50 was 525 nM. Compared with the last compound, the IC50 is about 5.6-fold lower.

For `O=C(Nc1ccc(N2CCN(C(=O)Nc3c(Cl)cccc3Cl)CC2)cc1)c1ccccc1-c1ccco1` [Compound 4], the half-inhibitory concentration (IC50) is 24.5 nM.

In turn, `O=C(Nc1ccc(C2CCN(C(=O)Nc3c(Cl)cccc3Cl)CC2)cc1)c1cccc2c1-c1ccccc1C2=O` [Compound 63] had a 50% inhibitory concentration (IC50) of 120 nM. Against the preceding compound, the IC50 is about 4.9-fold higher.

Consider `Cc1ccc(C(=O)Nc2ccc(C3CCN(C(=O)Nc4c(Cl)cccc4Cl)CC3)cc2)c(-c2ccc(C(F)(F)F)cc2)c1` [Compound 58], for which it took 355 nM to reach half-maximal inhibition (IC50).

In turn, `CCc1cccc(C)c1NC(=O)N1CCC(c2ccc(NC(=O)c3ccccc3-c3ccc(C(F)(F)F)cc3)cc2)CC1` [Compound 110] gave an IC50 of 955 nM. This IC50 is about 2.7-fold higher than that of the compound before.

Regarding `Cc1cc(C)c(NC(=O)N2CCN(c3ccc(NC(=O)c4ccccc4-c4ccc(C(F)(F)F)cc4)cc3)CC2)c(C)c1` [Compound 85], the IC50 was 178 nM.

With `CC(C)(C)OC(=O)N1CCCC(C(=O)Nc2ccc(C3CCN(C(=O)Nc4c(Cl)cccc4Cl)CC3)cc2)C1` (centres unmarked) [Compound 52], the 50% inhibitory concentration (IC50) is 17.4 nM.

Regarding `Cc1cccc(Cl)c1NC(=O)N1CCC(c2ccc(NC(=O)c3ccccc3-c3ccc(C(F)(F)F)cc3)cc2)CC1` [Compound 113], the IC50 is 1070 nM.

For the compound `O=C(Nc1ccc(N2CCN(C(=O)Nc3c(Cl)cccc3Cl)CC2)cc1)c1ccccc1N1CCS(=O)(=O)CC1` [Compound 42], the IC50 was 1170 nM.

Regarding `Cc1cccc(Cl)c1NC(=O)N1CCN(c2ccc(NC(=O)c3ccccc3-c3ccc(C(F)(F)F)cc3)cc2)CC1` [Compound 94], half-maximal inhibition (IC50) required 148 nM. This IC50 is about 7.9-fold lower than that of the compound before.

`Cc1n[nH]c(C)c1-c1ccccc1C(=O)Nc1ccc(N2CCN(C(=O)Nc3c(Cl)cccc3Cl)CC2)cc1` [Compound 26] showed an IC50 of 398 nM.

The compound `Cc1ccc(C(=O)Nc2ccc(N3CCN(C(=O)Nc4c(Cl)cccc4Cl)CC3)cc2)c(-c2ccc(C(F)(F)F)cc2)c1` [Compound 66] showed an IC50 of 58.9 nM.

`COC(=O)c1ccccc1NC(=O)N1CCN(c2ccc(NC(=O)c3ccccc3-c3ccc(C(F)(F)F)cc3)cc2)CC1` [Compound 86] gave an IC50 of 9770 nM.

`Cc1cc(C)n(-c2cccc(C(=O)Nc3ccc(N4CCN(C(=O)Nc5c(Cl)cccc5Cl)CC4)cc3)c2)n1` [Compound 28] gave a 50% inhibitory concentration (IC50) of 5.01 nM.

As for `O=C(Nc1ccc(N2CCN(C(=O)Nc3c(Cl)cccc3Cl)CC2)cc1)c1ccc(-n2cccn2)cc1` [Compound 21], half-maximal inhibition (IC50) required 8.91 nM. This IC50 lies about 1.8-fold higher than the previous one.

Take `O=C(O)Cc1cccc(C(=O)Nc2ccc(N3CCN(C(=O)Nc4c(Cl)cc(CN5CCCCC5)cc4Cl)CC3)cc2)c1` [Compound 143]: the IC50 was 3310 nM. This IC50 lies about 370-fold higher than the previous one.

`CCc1nc(C)c(-c2ccccc2C(=O)Nc2ccc(N3CCN(C(=O)Nc4c(Cl)cccc4Cl)CC3)cc2)s1` [Compound 18] gave an IC50 of 40.7 nM.

The term IC50 denotes the point on the concentration scale where inhibition reaches its midpoint. Low values mean higher potency, high ones lower potency.
